Test results: article PMC11428108 (Frontiers in Molecular Neuroscience, 2024)
“And” between values parts separate entries of the source, which are not always exact repeats. Equal entries are not always repeated. “Also recorded” adds a separate entry of the source. Where two headings read alike, the source gives them in different places.

How the values were obtained:
[1] = target: human (α4)2(β2)2β2/α4 (α4β2*) nAChRs (Homo sapiens, UniProt P17787+P43681); experiment: FLEXstation membrane potential assay in HEK cells stably expressing α4β2* nAChRs; type: cell-based; set-up: expressed in transfected cells
Text: Human embryonic kidney (HEK) cell lines stably expressing human (α4)2(β2)2β2/α4 (α4β2*) nAChRs, (α4)2(β2)2α5 nAChRs, (α4)2(β2)2β3 nAChRs, (α3)2(β4)2α3/β4 (α3β4*) nAChRs, (α3)2(β2)2α3/β2 (α3β2*) nAChRs, (α3)2(β4)2α5 nAChRs, or (α3)2(β2)2α5 nAChRs were maintained as described previously ([Wang et al., 2015]; [Kuryatov et al., 2005]; [Caligiuri et al., 2022]). The FLEXstation bench top scanning fluorometer from Molecular Devices was used to assay nAChR function in these cells, according to published protocols ([Wang et al., 2015]; [Kuryatov et al., 2005]). The membrane potential kit (Molecular Devices) was used according to the manufacturer’s protocols. Serial dilutions of SR9883 were manually added to the assay plate 15 min prior to recording. […] Compound dilutions were prepared in V-shaped 96-well plates (Fisher Scientific Co.) and added to cell culture wells at a rate of 20 μL s^−1 during recording. Cells were incubated at 29°C for 6–20 h prior to assays to upregulate nAChRs ([Wang et al., 2015]; [Kuryatov et al., 2005]). Data points were averaged from 3 to 4 responses from separate wells. Potency and efficacy were calculated using the Hill equation as described previously ([Wang et al., 2015]).
(§1) Concentration-response curves of SR9883 actions in nAChR-expressing HEK cells and oocytes were fitted to the Hill equation using a nonlinear least squares curve fit method and efficacy and potency values were calculated as previously described ([Wang et al., 2015]). Plasma and brain levels of SR9983 after oral administration were compared using a two-tailed paired t test. […] For the ICSS threshold experiment, percentages of baseline reward threshold scores were calculated by expressing the absolute threshold scores as a percentage of the scores obtained during baseline. The baseline values were the mean thresholds on the three sessions prior to drug injections. Response latency data were analyzed in the same manner as the threshold data. […] Effects of SR9883 on responding for food pellets in rats was analyzed by a two-tailed paired t test. […] Significant main or interaction effects in ANOVAs were followed by Bonferroni or Newman–Keuls post-hoc tests as appropriate. All statistical analyses were performed using GraphPad Prism software with α set to 0.05.

[2] = test system: α4β2*, (α4)2(β2)2α5, and (α4)2(β2)2β3 nAChRs; experiment: FLEXstation assay, summary over α4β2* stoichiometries with low-affinity agonist binding sites; type: cell-based, human
Text: (§2) Human embryonic kidney (HEK) cell lines stably expressing human (α4)2(β2)2β2/α4 (α4β2*) nAChRs, (α4)2(β2)2α5 nAChRs, (α4)2(β2)2β3 nAChRs, (α3)2(β4)2α3/β4 (α3β4*) nAChRs, (α3)2(β2)2α3/β2 (α3β2*) nAChRs, (α3)2(β4)2α5 nAChRs, or (α3)2(β2)2α5 nAChRs were maintained as described previously ([Wang et al., 2015]; [Kuryatov et al., 2005]; [Caligiuri et al., 2022]). The FLEXstation bench top scanning fluorometer from Molecular Devices was used to assay nAChR function in these cells, according to published protocols ([Wang et al., 2015]; [Kuryatov et al., 2005]). The membrane potential kit (Molecular Devices) was used according to the manufacturer’s protocols. Serial dilutions of SR9883 were manually added to the assay plate 15 min prior to recording. […] Potency and efficacy were calculated using the Hill equation as described previously ([Wang et al., 2015]).
(§3) Concentration-response curves of SR9883 actions in nAChR-expressing HEK cells and oocytes were fitted to the Hill equation using a nonlinear least squares curve fit method and efficacy and potency values were calculated as previously described ([Wang et al., 2015]). […] For the ICSS threshold experiment, percentages of baseline reward threshold scores were calculated by expressing the absolute threshold scores as a percentage of the scores obtained during baseline. […] Response latency data were analyzed in the same manner as the threshold data. […]

male Wistar rats [3] = experiment: Intravenous nicotine self-administration (FR5TO20); type: in vivo; conditions: for Numbers of nicotine infusions earned vs vehicle: nicotine 0.03 mg kg^−1 per infusion
Procedure: Operant chambers (Med Associates, East Fairfield, VT, United States) were used to assess responding by rats for food pellets and intravenous nicotine infusions. […] All rats were food-restricted to maintain their body weight at approximately 85% that of free-feeding weights. They were then trained to press an active lever for 45 mg food pellets on a fixed ratio 5 time-out 20 s (FR5TO20) schedule of reinforcement. […] Rats responded for food rewards until a reliable responding was achieved, defined as >90 pellets earned per 60 min session across three consecutive sessions. […] Rats were anesthetized using 1–3% isoflurane inhalation in oxygen and catheters were implanted into the left jugular vein. The catheter was passed subcutaneously to a polyethylene assembly mounted on the animals’ back. […] During the time period, responding on the active lever had no scheduled consequence.
as §1

[4] = target: T1, human (α3)2(β4)2α5 nAChRs (Homo sapiens, UniProt P30532+P30926+P32297); experiment: FLEXstation membrane potential assay in HEK cells stably expressing (α3)2(β4)2α5 nAChRs; type: cell-based; conditions: SR9883 0.0005–10 μM
T1 construct: expressed in transfected cells
Text: as §2, §3

[5] = Brain penetration: plasma and brain levels 120 min after oral dosing; type: in vivo, C57BL/6J mice; conditions: C57BL/6J, mouse, 20 mg kg^−1 PO
Procedure: (§4) Mice prepared with intravenous catheters and treated with SR9883 via oral (10 mg kg^−1) or intravenous (1 mg kg^−1) routes of administration. Blood samples were collected up to 240 min after treatment into lithium heparin coated tubes (Ram Scientific) and stored on wet ice. Blood samples were later centrifuged for 3 min at 5,000 RPM to separate plasma from red blood cells. Plasma was collected into a fresh tube and stored at −80°C. A separate group of mice was treated with SR9883 (20 mg kg^−1 PO) and killed by cervical dislocation 120 min later. Their brains were collected and stored at −80°C. SR9883 levels were quantified in plasma and brain by mass spectrometry using an ABSciex 5,500 instrument and using multiple reaction monitoring as previously described ([Radnai et al., 2021]). Brain samples were homogenized in saline and then immediately treated with twice the amount (v:v) of acetonitrile to extract the compound. Plasma samples were directly treated with acetonitrile. Samples were filtered through a 0.2 μm filter plate prior to injection onto the LC–MS/MS as previously described ([Radnai et al., 2021]).

male Wistar rats [6] = experiment: Operant responding for food pellets (FR5TO20); type: in vivo; conditions: SR9883 10 mg kg^−1 IP, food-restricted rats; p = 0.9868
Procedure: Operant chambers (Med Associates, East Fairfield, VT, United States) were used to assess responding by rats for food pellets and intravenous nicotine infusions. […] All rats were food-restricted to maintain their body weight at approximately 85% that of free-feeding weights. They were then trained to press an active lever for 45 mg food pellets on a fixed ratio 5 time-out 20 s (FR5TO20) schedule of reinforcement. […] Rats responded for food rewards until a reliable responding was achieved, defined as >90 pellets earned per 60 min session across three consecutive sessions. […] Rats were anesthetized using 1–3% isoflurane inhalation in oxygen and catheters were implanted into the left jugular vein. […]
Concentration-response curves of SR9883 actions in nAChR-expressing HEK cells and oocytes were fitted to the Hill equation using a nonlinear least squares curve fit method and efficacy and potency values were calculated as previously described ([Wang et al., 2015]). […] For the ICSS threshold experiment, percentages of baseline reward threshold scores were calculated by expressing the absolute threshold scores as a percentage of the scores obtained during baseline. […] Response latency data were analyzed in the same manner as the threshold data. […] Effects of SR9883 on responding for food pellets in rats was analyzed by a two-tailed paired t test. […]

(α4)2(β2)2α4 nAChRs = target: T2, (α4)2(β2)2α4 nAChRs (Homo sapiens, UniProt P17787+P43681); experiment: nAChR-mediated currents in oocytes expressing (α4)2(β2)2α4 nAChRs (unpublished observations); type: cell-based; conditions: pure stoichiometry
T2 construct: expressed in transfected cells
Procedure: as §1

[7] = target: T3, human (α3)2(β2)2α5 nAChRs (Homo sapiens, UniProt P17787+P30532+P32297); experiment: FLEXstation membrane potential assay in HEK cells stably expressing (α3)2(β2)2α5 nAChRs; type: cell-based; conditions: SR9883 0.0005–10 μM
T3 construct: expressed in transfected cells
Text: as §2, §3

[8] = Plasma pharmacokinetics after IV or PO administration; type: in vivo, male C57BL/6J mice
Procedure: as §4

[9] = male, C57BL/6J, mouse, IV 1 mg kg^−1, plasma, n = 3
[10] = male, C57BL/6J, mouse, PO 10 mg kg^−1, plasma, n = 3

human (α4)2(β2)2β2/α4 (α4β2*) nAChRs, sequence (P43681 27-627): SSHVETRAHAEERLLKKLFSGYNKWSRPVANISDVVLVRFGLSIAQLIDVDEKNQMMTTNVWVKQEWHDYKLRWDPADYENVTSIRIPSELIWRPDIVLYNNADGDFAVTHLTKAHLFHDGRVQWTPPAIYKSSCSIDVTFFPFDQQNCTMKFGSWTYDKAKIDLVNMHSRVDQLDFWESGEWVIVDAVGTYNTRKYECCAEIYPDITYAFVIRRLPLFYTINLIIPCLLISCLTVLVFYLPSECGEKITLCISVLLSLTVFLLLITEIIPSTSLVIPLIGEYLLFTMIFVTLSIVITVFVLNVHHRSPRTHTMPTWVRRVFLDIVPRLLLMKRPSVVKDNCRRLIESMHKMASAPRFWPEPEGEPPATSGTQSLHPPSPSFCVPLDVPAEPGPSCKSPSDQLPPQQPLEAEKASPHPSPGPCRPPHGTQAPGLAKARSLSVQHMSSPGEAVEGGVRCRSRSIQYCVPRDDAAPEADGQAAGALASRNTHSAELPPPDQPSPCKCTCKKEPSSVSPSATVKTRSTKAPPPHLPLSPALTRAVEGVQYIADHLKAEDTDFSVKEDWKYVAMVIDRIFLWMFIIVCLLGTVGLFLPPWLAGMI
human (α4)2(β2)2β2/α4 (α4β2*) nAChRs, sequence (P17787 26-502): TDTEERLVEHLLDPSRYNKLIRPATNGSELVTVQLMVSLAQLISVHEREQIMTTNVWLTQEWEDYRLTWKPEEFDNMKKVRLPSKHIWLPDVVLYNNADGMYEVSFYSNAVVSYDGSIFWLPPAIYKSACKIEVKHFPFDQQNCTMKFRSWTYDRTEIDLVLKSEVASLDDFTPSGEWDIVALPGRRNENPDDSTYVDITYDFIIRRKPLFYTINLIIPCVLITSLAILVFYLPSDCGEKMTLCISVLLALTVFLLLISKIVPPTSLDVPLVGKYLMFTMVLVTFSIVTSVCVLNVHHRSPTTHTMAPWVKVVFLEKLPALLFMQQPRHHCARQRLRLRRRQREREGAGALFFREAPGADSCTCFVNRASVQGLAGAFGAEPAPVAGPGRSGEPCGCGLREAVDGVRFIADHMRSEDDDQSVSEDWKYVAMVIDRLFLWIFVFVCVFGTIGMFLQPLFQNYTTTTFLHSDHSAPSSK
T1 sequence (P32297 32-505): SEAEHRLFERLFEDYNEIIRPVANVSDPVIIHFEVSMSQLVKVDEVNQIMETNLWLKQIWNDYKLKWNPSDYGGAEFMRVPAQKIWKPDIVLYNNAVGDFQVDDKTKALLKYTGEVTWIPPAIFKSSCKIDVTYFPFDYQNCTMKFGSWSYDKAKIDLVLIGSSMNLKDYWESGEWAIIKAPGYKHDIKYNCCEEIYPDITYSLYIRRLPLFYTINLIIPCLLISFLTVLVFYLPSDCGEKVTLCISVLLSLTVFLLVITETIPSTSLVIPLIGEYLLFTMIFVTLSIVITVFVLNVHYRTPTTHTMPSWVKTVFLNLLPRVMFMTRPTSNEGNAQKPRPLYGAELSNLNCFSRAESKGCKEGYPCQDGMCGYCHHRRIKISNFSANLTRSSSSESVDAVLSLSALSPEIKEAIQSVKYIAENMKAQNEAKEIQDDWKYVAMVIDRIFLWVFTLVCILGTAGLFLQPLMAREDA
T1 sequence (P30926 22-498): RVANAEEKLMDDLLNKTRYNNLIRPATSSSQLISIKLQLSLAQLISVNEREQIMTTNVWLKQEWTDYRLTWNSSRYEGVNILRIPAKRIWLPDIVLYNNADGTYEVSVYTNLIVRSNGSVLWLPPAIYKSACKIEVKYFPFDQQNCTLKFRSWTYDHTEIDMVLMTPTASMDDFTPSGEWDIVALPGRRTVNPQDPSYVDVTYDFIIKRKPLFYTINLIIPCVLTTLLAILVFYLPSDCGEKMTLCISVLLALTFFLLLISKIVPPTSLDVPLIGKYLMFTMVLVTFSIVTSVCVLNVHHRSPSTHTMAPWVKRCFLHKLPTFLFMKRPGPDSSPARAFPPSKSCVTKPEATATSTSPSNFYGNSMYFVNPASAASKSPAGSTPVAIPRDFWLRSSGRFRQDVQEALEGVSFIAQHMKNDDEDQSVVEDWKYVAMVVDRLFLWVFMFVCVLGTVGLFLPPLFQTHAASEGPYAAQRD
T1 sequence (P30532 23-468): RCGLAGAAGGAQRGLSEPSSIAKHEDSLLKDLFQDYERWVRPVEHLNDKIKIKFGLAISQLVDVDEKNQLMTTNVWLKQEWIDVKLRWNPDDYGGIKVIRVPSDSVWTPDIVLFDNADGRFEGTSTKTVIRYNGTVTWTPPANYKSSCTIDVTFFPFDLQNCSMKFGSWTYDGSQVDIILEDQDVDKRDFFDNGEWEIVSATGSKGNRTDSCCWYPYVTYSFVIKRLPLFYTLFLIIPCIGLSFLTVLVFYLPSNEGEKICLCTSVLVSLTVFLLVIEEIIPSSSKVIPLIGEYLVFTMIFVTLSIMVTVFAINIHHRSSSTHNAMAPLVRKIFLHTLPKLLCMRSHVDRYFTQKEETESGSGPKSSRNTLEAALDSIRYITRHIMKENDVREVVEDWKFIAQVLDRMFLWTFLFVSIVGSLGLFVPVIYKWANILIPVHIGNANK
T3 sequence (P32297 32-505): as the sequence (P32297 32-505) above
T3 sequence (P17787 26-502): as the sequence (P17787 26-502) above
T3 sequence (P30532 23-468): as the sequence (P30532 23-468) above
T2 sequence (P43681 29-627 limits assumed): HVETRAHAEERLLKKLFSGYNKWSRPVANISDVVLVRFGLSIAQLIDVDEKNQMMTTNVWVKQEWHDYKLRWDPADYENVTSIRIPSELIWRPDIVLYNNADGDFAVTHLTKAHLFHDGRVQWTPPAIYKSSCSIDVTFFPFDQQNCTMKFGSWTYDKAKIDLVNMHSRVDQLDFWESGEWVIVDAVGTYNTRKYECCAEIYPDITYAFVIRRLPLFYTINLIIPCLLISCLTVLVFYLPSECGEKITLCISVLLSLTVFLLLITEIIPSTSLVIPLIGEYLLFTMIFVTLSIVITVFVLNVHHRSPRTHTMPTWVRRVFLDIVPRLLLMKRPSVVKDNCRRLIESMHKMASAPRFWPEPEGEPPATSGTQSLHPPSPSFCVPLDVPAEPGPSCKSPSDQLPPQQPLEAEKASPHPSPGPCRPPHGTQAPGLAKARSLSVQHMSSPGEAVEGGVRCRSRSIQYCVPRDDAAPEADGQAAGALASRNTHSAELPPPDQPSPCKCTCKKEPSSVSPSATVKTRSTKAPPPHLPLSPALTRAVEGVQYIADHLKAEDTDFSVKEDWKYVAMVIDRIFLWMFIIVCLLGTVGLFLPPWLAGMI
T2 sequence (P17787 26-502): as the sequence (P17787 26-502) above

**Q.** With `N#Cc1cccc(-n2nnc(-c3cccnc3)n2)c1` [SR9883, 3-(5-(pyridin-3-yl)-2H-tetrazol-2-yl)benzonitrile] as the compound, how does the “Effect on maximum response to nicotine” value ([1]; SR9883 10 μM, nicotine 0.001–50 μM) read?
**A.** no effect

**Q.** And the EC50 ([1]; SR9883 0.0005–10 μM on response to EC20-30 nicotine, HEK cells, ±SEM)?
**A.** 381 ± 91.6 nM

**Q.** What about the nHill ([1]; SR9883 0.0005–10 μM on response to EC20-30 nicotine, ±SEM) of the same compound?
**A.** 1.1015 ± 0.2269

**Q.** And the Efficacy ([1]; response to EC20-30 nicotine with SR9883 relative to nicotine alone, ±SEM)?
**A.** 108.92 ± 7.65%

**Q.** What about the “Concentration inducing maximal enhancement of nAChR signaling” value ([2]; EC20-30 nicotine) of the same compound?
**A.** ~ 3 μM

**Q.** And the EC50 ([2]; enhancement of the effect of nicotine, read-out: EC50 values, range over stoichiometries)?
**A.** 200 to 400 nM

**Q.** And the “Numbers of nicotine infusions earned vs vehicle” value (male Wistar rats [3]; SR9883 5 mg kg^−1 IP, p = 0.0021)?
**A.** decreased

**Q.** And the “Numbers of nicotine infusions earned vs vehicle” value (male Wistar rats [3]; SR9883 10 mg kg^−1 IP, p < 0.0001)?
**A.** decreased

**Q.** What about the “Responding on the inactive lever” value (male Wistar rats [3]; SR9883 5 and 10 mg kg^−1 IP, p = 0.1274, not significant) of the same compound?
**A.** tended to be decreased

**Q.** And the “Residual deficits in nicotine responding across daily sessions after treatment” value (male Wistar rats [3]; baseline sessions prior to each SR9883 treatment)?
**A.** no residual deficits

**Q.** And the “EC50 (enhancement of response to EC20-30 nicotine)” value [4]?
**A.** no effect; also recorded: No enhancement

**Q.** And the concentration at 120 min ([5]; brain, read-out: Brain SR9883 level)?
**A.** ~4.5 µM and ~1100 ng/mL

**Q.** What about the concentration at 120 min ([5]; plasma, read-out: Plasma SR9883 level) of the same compound?
**A.** ~2600 ng/mL and ~11 µM

**Q.** And the “Food responding (food pellets earned)” value (male Wistar rats [6])?
**A.** had no effect

**Q.** What about the nAChR-mediated currents ((α4)2(β2)2α4 nAChRs) of the same compound?
**A.** enhanced nAChR-mediated currents

**Q.** And the “EC50 (enhancement of response to EC20-30 nicotine)” value [7]?
**A.** no effect; also recorded: No enhancement

**Q.** And the Vss_obs ([8]; IV 1 mg kg^−1, n = 3)?
**A.** 2.72 ± 0.89 L/kg

**Q.** And the Cl_obs ([8]; PO 10 mg kg^−1, n = 3)?
**A.** 24.59 ± 2.42 mL/min/kg

**Q.** And the half-life ([8]; male, C57BL/6J, mouse, plasma, iv, 1 mg/kg, IV 1 mg kg^−1, as stated in text, read-out: plasma half-life (T½))?
**A.** ~53 min

**Q.** And the Cmax ([8]; male, C57BL/6J, mouse, plasma, iv, 1 mg/kg, IV 1 mg kg^−1, plasma, n = 3)?
**A.** ~775 ng/mL and ~3 µM

**Q.** And the half-life ([8]; male, C57BL/6J, mouse, plasma, iv, 1 mg/kg, IV 1 mg kg^−1, plasma, n = 3, mean (S.E.M.), read-out: T1/2 (converted))?
**A.** 52.8 ± 21.1 min

**Q.** And the half-life ([8]; male, C57BL/6J, mouse, plasma, other: intravenous and oral, after IV and oral administration, read-out: half-life)?
**A.** 50 to 60 min

**Q.** What about the half-life ([8]; male, C57BL/6J, mouse, plasma, po, 10 mg/kg, PO 10 mg kg^−1, as stated in text, read-out: T½) of the same compound?
**A.** ~64 min

**Q.** And the Cmax ([8]; male, C57BL/6J, mouse, plasma, po, 10 mg/kg, PO 10 mg kg^−1, plasma, n = 3)?
**A.** 1020 ± 60.6 ng/mL

**Q.** And the half-life ([8]; male, C57BL/6J, mouse, plasma, po, 10 mg/kg, PO 10 mg kg^−1, plasma, n = 3, mean (S.E.M.), read-out: T1/2 (converted))?
**A.** 224 ± 36.6 min

**Q.** And the clearance ([8]; male, C57BL/6J, mouse, plasma, IV 1 mg kg^−1, n = 3, read-out: Cl_obs)?
**A.** 45.7 ± 12.8 mL/min/kg

**Q.** What about the AUC(0-t) [8, 9] of the same compound?
**A.** 1.77 ± 0.62 µM·h

**Q.** What about the Tmax [8, 9] of the same compound?
**A.** 4.8 min

**Q.** And the AUC(0-t) [8, 10]?
**A.** 21.1 ± 0.54 µM·h

**Q.** What about the Tmax [8, 10] of the same compound?
**A.** 64.8 ± 30.6 min
